In the NIST ThermoML archive (doi:10.1016/j.jct.2010.11.004):

Experiment: excess molar enthalpy (molar enthalpy of mixing); xn = mol fraction of the nth substance listed
Settings: 298.15 K, 101 kPa, Liquid, ISOTHERMAL TITRATION CALORIMETRY

CCCCCOCCCCC [dipentyl ether] + CCCCCCCCCCCCCC
Settings	excess molar enthalpy [kJ/mol]
x1 = 0.0299	0.029
x1 = 0.0581	0.054
x1 = 0.0847	0.076
x1 = 0.1099	0.095
x1 = 0.1337	0.111
x1 = 0.1562	0.127
x1 = 0.1776	0.14
x1 = 0.198	0.151
x1 = 0.22	0.164
x1 = 0.2447	0.174
x1 = 0.266	0.184
x1 = 0.2862	0.192
x1 = 0.3054	0.198
x1 = 0.3235	0.203
x1 = 0.3407	0.208
x1 = 0.357	0.212
x1 = 0.3761	0.217
x1 = 0.394	0.22
x1 = 0.411	0.222
x1 = 0.427	0.224
x1 = 0.4422	0.225
x1 = 0.4566	0.226
x1 = 0.4702	0.227
x1 = 0.4832	0.227
x1 = 0.4927	0.227
x1 = 0.5031	0.228
x1 = 0.5139	0.228
x1 = 0.5253	0.229
x1 = 0.5371	0.228
x1 = 0.5494	0.228
x1 = 0.5604	0.227
x1 = 0.5718	0.226
x1 = 0.5838	0.224
x1 = 0.5962	0.223
x1 = 0.6092	0.221
x1 = 0.6228	0.218
x1 = 0.6369	0.214
x1 = 0.6502	0.212
x1 = 0.664	0.208
x1 = 0.6784	0.204
x1 = 0.6934	0.199
x1 = 0.7092	0.194
x1 = 0.7256	0.188
x1 = 0.7398	0.182
x1 = 0.7546	0.176
x1 = 0.7699	0.169
x1 = 0.7859	0.16
x1 = 0.8026	0.151
x1 = 0.8199	0.141
x1 = 0.8353	0.131
x1 = 0.8513	0.121
x1 = 0.8679	0.11
x1 = 0.8852	0.098
x1 = 0.9032	0.085
x1 = 0.918	0.074
x1 = 0.9333	0.061
x1 = 0.9491	0.047
x1 = 0.9655	0.032
x1 = 0.9824	0.017
